In ChEMBL document CHEMBL1201861, “Genomics of Drug Sensitity in Cancer screening data, Wellcome Trust Sanger Institute”:

Key:
[1] = test system: NCI-H1304; experiment: cells; type: functional, cell-based; conditions: Homo sapiens;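 also: growth inhibition of the cancer cell line, measured in a cell viability assay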
Description: SANGER: Inhibition of human NCI-H1304 cell growth in a cell viability assay.

[2] = test system: NOMO-1; experiment: cells; type: functional, cell-based; conditions: Homo sapiens;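 also: growth inhibition of human NOMO-1 cells measured by a cell viability assay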
Description: SANGER: Inhibition of human NOMO-1 cell growth in a cell viability assay.

[3] = test system: KNS-81-FD; experiment: cells; type: functional, cell-based, Homo sapiens; conditions: Homo sapiens, KNS-81-FD;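 also: growth inhibition of KNS-81-FD cells, read out with a cell viability assay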
Description: SANGER: Inhibition of human KNS-81-FD cell growth in a cell viability assay.

[4] = test system: SR; experiment: cells; type: functional, cell-based; conditions: Homo sapiens
Description: SANGER: Inhibition of human SR cell growth in a cell viability assay.

[5] = test system: IST-SL2; experiment: cells; type: functional, cell-based; conditions: Homo sapiens;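 also: growth inhibition of human IST-SL2 cells, read out by a cell viability assay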
Description: SANGER: Inhibition of human IST-SL2 cell growth in a cell viability assay.

[6] = test system: CMK; experiment: cells; type: functional, cell-based; conditions: Homo sapiens;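 also: growth inhibition of CMK cells, read out as cell viability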
Description: SANGER: Inhibition of human CMK cell growth in a cell viability assay.

[7] = test system: CPC-N; experiment: cells; type: functional, cell-based; conditions: Homo sapiens;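 also: growth inhibition of CPC-N cells, with a cell viability assay as the readout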
Description: SANGER: Inhibition of human CPC-N cell growth in a cell viability assay.

[8] = test system: BL-41; experiment: cells; type: functional, cell-based; conditions: Homo sapiens;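 also: growth inhibition of human BL-41 cells, read out with a cell viability assay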
Description: SANGER: Inhibition of human BL-41 cell growth in a cell viability assay.

[9] = test system: NCI-H889; experiment: cells; type: functional, cell-based; conditions: Homo sapiens;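 also: cell growth inhibition of the cell line, read out with a viability assay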
Description: SANGER: Inhibition of human NCI-H889 cell growth in a cell viability assay.

[10] = test system: ARH-77; experiment: cells; type: functional, cell-based; conditions: Homo sapiens;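 also: growth inhibition of ARH-77 cells, read out by a cell viability assay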
Description: SANGER: Inhibition of human ARH-77 cell growth in a cell viability assay.

[11] = test system: JIYOYE; experiment: cells; type: functional, cell-based; conditions: Homo sapiens
Description: SANGER: Inhibition of human JiyoyeP-2003 cell growth in a cell viability assay.

[12] = test system: LAN-6; experiment: cells; type: functional, cell-based, Homo sapiens; conditions: Homo sapiens, LAN-6;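 also: growth inhibition of LAN-6 cells, determined with a cell viability assay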
Description: SANGER: Inhibition of human LAN-6 cell growth in a cell viability assay.

[13] = test system: COR-L279; experiment: SANGER: Inhibition of human COR-L279 cell growth in a cell viability assay.; type: functional, cell-based
[14] = test system: NCI-H748; experiment: cells; type: functional, cell-based; conditions: Homo sapiens;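 also: growth inhibition of NCI-H748 cells, measured by a cell viability assay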
Description: SANGER: Inhibition of human NCI-H748 cell growth in a cell viability assay.

[15] = test system: NCI-H187; experiment: cells; type: functional, cell-based; conditions: Homo sapiens;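 also: growth inhibition of NCI-H187 cells, read out as cell viability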
Description: SANGER: Inhibition of human NCI-H187 cell growth in a cell viability assay.

[16] = test system: NCI-H2171; experiment: cells; type: functional, cell-based; conditions: Homo sapiens;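 also: growth inhibition of human NCI-H2171 cells, read out by a cell viability assay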
Description: SANGER: Inhibition of human NCI-H2171 cell growth in a cell viability assay.

[17] = test system: SCLC-21H; experiment: cells; type: functional, cell-based; conditions: Homo sapiens;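 also: growth inhibition of cultured human SCLC-21H cells, read out with a cell viability assay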
Description: SANGER: Inhibition of human SCLC-21H cell growth in a cell viability assay.

[18] = test system: NCI-H1417; experiment: cells; type: functional, cell-based; conditions: Homo sapiens;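 also: human NCI-H1417 cells, growth inhibition determined with a cell viability readout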
Description: SANGER: Inhibition of human NCI-H1417 cell growth in a cell viability assay.

[19] = test system: RPMI 8402; experiment: SANGER: Inhibition of human RPMI-8402 cell growth in a cell viability assay.; type: functional, cell-based
[20] = test system: TE-441-T; experiment: cells; type: functional, cell-based; conditions: Homo sapiens
Description: SANGER: Inhibition of human TE-441-T cell growth in a cell viability assay.

[21] = test system: LU-165; experiment: cells; type: functional, cell-based; conditions: Homo sapiens
Description: SANGER: Inhibition of human LU-165 cell growth in a cell viability assay.

[22] = test system: MOLT-13; experiment: cells; type: functional, cell-based; conditions: Homo sapiens;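 also: IC50 for suppression of MOLT-13 cell growth, read out with a cell viability assay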
Description: SANGER: Inhibition of human MOLT-13 cell growth in a cell viability assay.

[23] = test system: NCI-H82; experiment: cells; type: functional, cell-based; conditions: Homo sapiens;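 also: growth inhibition of NCI-H82 cells, measured with a cell viability readout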
Description: SANGER: Inhibition of human NCI-H82 cell growth in a cell viability assay.

[24] = test system: NCI-H1092; experiment: cells; type: functional, cell-based; conditions: Homo sapiens
Description: SANGER: Inhibition of human NCI-H1092 cell growth in a cell viability assay.

[25] = test system: NCI-H345; experiment: cells; type: functional, cell-based; conditions: Homo sapiens;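 also: growth inhibition of NCI-H345 cells measured with a cell viability assay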
Description: SANGER: Inhibition of human NCI-H345 cell growth in a cell viability assay.

[26] = test system: CAL-148; experiment: cells; type: functional, cell-based; conditions: Homo sapiens
Description: SANGER: Inhibition of human CAL-148 cell growth in a cell viability assay.

[27] = test system: NALM-6; experiment: cells; type: functional, cell-based; conditions: Homo sapiens;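 also: growth inhibition of NALM-6 cells, read out with a cell viability assay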
Description: SANGER: Inhibition of human NALM-6 cell growth in a cell viability assay.

[28] = test system: LAMA-84; experiment: cells; type: functional, cell-based; conditions: Homo sapiens;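 also: growth inhibition of LAMA-84 cells, read out with a cell viability assay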
Description: SANGER: Inhibition of human LAMA-84 cell growth in a cell viability assay.

[29] = test system: RPMI-6666; experiment: cells; type: functional, cell-based; conditions: Homo sapiens
Description: SANGER: Inhibition of human RPMI-6666 cell growth in a cell viability assay.

[30] = test system: NB7; experiment: cells; type: functional, cell-based; conditions: Homo sapiens;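 also: growth inhibition of NB7 cells, read out with a cell viability assay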
Description: SANGER: Inhibition of human NB7 cell growth in a cell viability assay.

[31] = test system: NCI-H2141; experiment: cells; type: functional, cell-based; conditions: Homo sapiens;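 also: growth inhibition of human NCI-H2141 cells, read out with a cell viability assay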
Description: SANGER: Inhibition of human NCI-H2141 cell growth in a cell viability assay.

[32] = test system: LB996-RCC; experiment: cells; type: functional, cell-based; conditions: Homo sapiens
Description: SANGER: Inhibition of human LB996-RCC cell growth in a cell viability assay.

[33] = test system: NCI-H716; experiment: cells; type: functional, cell-based; conditions: Homo sapiens;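 also: growth inhibition of human NCI-H716 cells, measured by a cell viability assay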
Description: SANGER: Inhibition of human NCI-H716 cell growth in a cell viability assay.

[34] = test system: SNU-16; experiment: cells; type: functional, cell-based; conditions: Homo sapiens;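 also: growth inhibition of human SNU-16 cells, determined with a cell viability readout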
Description: SANGER: Inhibition of human NCI-SNU-16 cell growth in a cell viability assay.

[35] = test system: SW872; experiment: cells; type: functional, cell-based, Homo sapiens; conditions: Homo sapiens, SW872;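 also: growth inhibition of SW872 cells, read out by a viability assay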
Description: SANGER: Inhibition of human SW872 cell growth in a cell viability assay.

[36] = test system: NCI-H1648; experiment: cells; type: functional, cell-based, Homo sapiens; conditions: Homo sapiens, NCI-H1648;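 also: cell viability assay measuring inhibition of NCI-H1648 cell growth, from the Sanger screening data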
Description: SANGER: Inhibition of human NCI-H1648 cell growth in a cell viability assay.

[37] = test system: SNU-C1; experiment: cells; type: functional, cell-based; conditions: Homo sapiens;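 also: growth inhibition of SNU-C1 human cells, read out by a cell viability assay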
Description: SANGER: Inhibition of human SNU-C1 cell growth in a cell viability assay.

[38] = test system: L-540; experiment: cells; type: functional, cell-based; conditions: Homo sapiens;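 also: growth inhibition of the human L-540 cell line, read out with a viability assay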
Description: SANGER: Inhibition of human L-540 cell growth in a cell viability assay.

[39] = test system: NCCIT; experiment: SANGER: Inhibition of human NCCIT cell growth in a cell viability assay.; type: functional, cell-based
[40] = test system: NCI-H524; experiment: cells; type: functional, cell-based; conditions: Homo sapiens;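 also: growth inhibition of human NCI-H524 cells, read out through a cell viability assay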
Description: SANGER: Inhibition of human NCI-H524 cell growth in a cell viability assay.

[41] = test system: NCI-H1436; experiment: cells; type: functional, cell-based; conditions: Homo sapiens;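 also: growth suppression of human NCI-H1436 cells, determined with a cell viability readout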
Description: SANGER: Inhibition of human NCI-H1436 cell growth in a cell viability assay.

[42] = test system: SAOS-2; experiment: cells; type: functional, cell-based, Homo sapiens; conditions: Homo sapiens, SAOS-2;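 also: growth inhibition of human Saos-2 cells determined by a cell viability assay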
Description: SANGER: Inhibition of human Saos-2 cell growth in a cell viability assay.

[43] = test system: CAL-33; experiment: cells; type: functional, cell-based, Homo sapiens; conditions: Homo sapiens, CAL-33;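 also: growth inhibition of CAL-33 cells, read out with a cell viability assay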
Description: SANGER: Inhibition of human CAL-33 cell growth in a cell viability assay.

[44] = test system: HuO9; experiment: cells; type: functional, cell-based, Homo sapiens; conditions: Homo sapiens, HuO9;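 also: growth inhibition of HuO9 cells, read out with a cell viability assay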
Description: SANGER: Inhibition of human HuO9 cell growth in a cell viability assay.

[45] = test system: CAL-62; experiment: cells; type: functional, cell-based, Homo sapiens; conditions: Homo sapiens, CAL-62;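 also: growth inhibition of CAL-62 cells, read out with a cell viability assay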
Description: SANGER: Inhibition of human CAL-62 cell growth in a cell viability assay.

[46] = test system: HN; experiment: cells; type: functional, cell-based, Homo sapiens; conditions: Homo sapiens, HN
Description: SANGER: Inhibition of human HN cell growth in a cell viability assay.

[47] = test system: DU-145; experiment: cells; type: functional, cell-based, Homo sapiens; conditions: Homo sapiens, DU-145
Description: SANGER: Inhibition of human DU-145 cell growth in a cell viability assay.

[48] = test system: Panc1005; experiment: cells; type: functional, cell-based, Homo sapiens; conditions: Homo sapiens, Panc1005;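 also: growth inhibition of human PANC-10-05 cells, measured by a cell viability assay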
Description: SANGER: Inhibition of human PANC-10-05 cell growth in a cell viability assay.

[49] = test system: A704; experiment: cells; type: functional, cell-based, Homo sapiens; conditions: Homo sapiens, A704;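 also: growth inhibition of human A704 cells, read out with a cell viability assay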
Description: SANGER: Inhibition of human A704 cell growth in a cell viability assay.

[50] = test system: NCI-H810; experiment: cells; type: functional, cell-based, Homo sapiens; conditions: Homo sapiens, NCI-H810;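 also: IC50 reflects inhibition of cancer cell line growth, read out with a cell viability assay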
Description: SANGER: Inhibition of human NCI-H810 cell growth in a cell viability assay.

[51] = test system: SJRH30; experiment: cells; type: functional, cell-based; conditions: Homo sapiens;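 also: growth inhibition of human SJRH30 cells, read out with a cell viability assay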
Description: SANGER: Inhibition of human SJRH30 cell growth in a cell viability assay.

[52] = test system: NCI-H2405; experiment: cells; type: functional, cell-based, Homo sapiens; conditions: Homo sapiens, NCI-H2405;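 also: growth inhibition of the human cell line, read out with a cell viability assay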
Description: SANGER: Inhibition of human NCI-H2405 cell growth in a cell viability assay.

[53] = test system: 8505C; experiment: cells; type: functional, cell-based, Homo sapiens; conditions: Homo sapiens, 8505C
Description: SANGER: Inhibition of human 8505C cell growth in a cell viability assay.

[54] = test system: 23132-87; experiment: cells; type: functional, cell-based, Homo sapiens; conditions: Homo sapiens
Description: SANGER: Inhibition of human 23132-87 cell growth in a cell viability assay.

[55] = test system: OAW-28; experiment: cells; type: functional, cell-based, Homo sapiens; conditions: Homo sapiens, OAW-28;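 also: growth inhibition of OAW-28 cells, read out with a cell viability assay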
Description: SANGER: Inhibition of human OAW-28 cell growth in a cell viability assay.

CNC(=O)c1cc(Oc2ccc(NC(=O)Nc3ccc(Cl)c(C(F)(F)F)c3)cc2)ccn1 [SORAFENIB]
IC50 [1]: > 4 µM | IC50 [2]: > 4 µM | IC50 [3]: > 4 µM | IC50 [4]: > 4 µM | IC50 [5]: > 4 µM | IC50 [6]: > 4 µM | IC50 [7]: > 4 µM | IC50 [8]: > 4 µM | IC50 [9]: > 4 µM | IC50 [10]: > 4 µM | IC50 [11]: > 4 µM | IC50 [12]: > 4 µM | IC50 [13]: > 4 µM | IC50 [14]: > 4 µM | IC50 [15]: > 4 µM | IC50 [16]: 2.4 µM | IC50 [17]: > 4 µM | IC50 [18]: > 4 µM | IC50 [19]: > 4 µM | IC50 [20]: > 4 µM | IC50 [21]: > 4 µM | IC50 [22]: > 4 µM | IC50 [23]: > 4 µM | IC50 [24]: > 4 µM | IC50 [25]: > 4 µM | IC50 [26]: > 4 µM | IC50 [27]: > 4 µM | IC50 [28]: 1.38 µM | IC50 [29]: > 4 µM | IC50 [30]: > 4 µM | IC50 [31]: > 4 µM | IC50 [32]: > 4 µM | IC50 [33]: > 4 µM | IC50 [34]: > 4 µM | IC50 [35]: > 4 µM | IC50 [36]: > 4 µM | IC50 [37]: > 4 µM | IC50 [38]: 2.76 µM | IC50 [39]: > 4 µM | IC50 [40]: > 4 µM | IC50 [41]: 1.22 µM

CN(c1ncccc1CNc1nc(Nc2ccc3c(c2)CC(=O)N3)ncc1C(F)(F)F)S(C)(=O)=O [PF-00562271]
IC50 [42]: > 2.56 µM | IC50 [1]: > 2.56 µM | IC50 [2]: > 2.56 µM | IC50 [3]: > 2.56 µM | IC50 [4]: > 2.56 µM | IC50 [5]: > 2.56 µM | IC50 [6]: 2.42 µM | IC50 [43]: 1.13 µM | IC50 [7]: > 2.56 µM | IC50 [8]: > 2.56 µM | IC50 [44]: > 2.56 µM | IC50 [45]: 1.32 µM | IC50 [9]: > 2.56 µM | IC50 [10]: > 2.56 µM | IC50 [11]: > 2.56 µM | IC50 [12]: > 2.56 µM | IC50 [13]: > 2.56 µM | IC50 [14]: > 2.56 µM | IC50 [15]: > 2.56 µM | IC50 [16]: > 2.56 µM | IC50 [46]: > 2.56 µM | IC50 [17]: > 2.56 µM | IC50 [18]: > 2.56 µM | IC50 [47]: 2.49 µM | IC50 [48]: > 2.56 µM | IC50 [49]: > 2.56 µM | IC50 [50]: 1.11 µM | IC50 [19]: > 2.56 µM | IC50 [20]: > 2.56 µM | IC50 [21]: > 2.56 µM | IC50 [23]: > 2.56 µM | IC50 [51]: > 2.56 µM | IC50 [24]: > 2.56 µM | IC50 [25]: > 2.56 µM | IC50 [26]: > 2.56 µM | IC50 [27]: > 2.56 µM | IC50 [28]: > 2.56 µM | IC50 [52]: > 2.56 µM | IC50 [53]: > 2.56 µM | IC50 [29]: > 2.56 µM | IC50 [54]: > 2.56 µM | IC50 [31]: > 2.56 µM | IC50 [55]: > 2.56 µM | IC50 [32]: > 2.56 µM | IC50 [33]: > 2.56 µM | IC50 [34]: > 2.56 µM | IC50 [35]: > 2.56 µM | IC50 [36]: > 2.56 µM | IC50 [37]: > 2.56 µM | IC50 [38]: > 2.56 µM | IC50 [39]: > 2.56 µM | IC50 [40]: > 2.56 µM | IC50 [41]: > 2.56 µM

Cc1cnc(-c2cnc(NCCNc3ccc(C#N)cn3)nc2-c2ccc(Cl)cc2Cl)[nH]1 [LADUVIGLUSIB]
IC50 [42]: > 2.56 µM | IC50 [1]: > 2.56 µM | IC50 [2]: > 2.56 µM | IC50 [3]: > 2.56 µM | IC50 [4]: > 2.56 µM | IC50 [5]: > 2.56 µM | IC50 [6]: > 2.56 µM | IC50 [43]: > 2.56 µM | IC50 [7]: > 2.56 µM | IC50 [8]: > 2.56 µM | IC50 [44]: > 2.56 µM | IC50 [45]: > 2.56 µM | IC50 [9]: > 2.56 µM | IC50 [10]: > 2.56 µM | IC50 [11]: > 2.56 µM | IC50 [12]: > 2.56 µM | IC50 [13]: > 2.56 µM | IC50 [14]: > 2.56 µM | IC50 [15]: > 2.56 µM | IC50 [16]: > 2.56 µM | IC50 [46]: > 2.56 µM | IC50 [17]: > 2.56 µM | IC50 [18]: > 2.56 µM | IC50 [47]: > 2.56 µM | IC50 [48]: > 2.56 µM | IC50 [49]: > 2.56 µM | IC50 [50]: > 2.56 µM | IC50 [19]: > 2.56 µM | IC50 [20]: > 2.56 µM | IC50 [21]: > 2.56 µM | IC50 [23]: > 2.56 µM | IC50 [51]: > 2.56 µM | IC50 [24]: > 2.56 µM | IC50 [25]: > 2.56 µM | IC50 [26]: > 2.56 µM | IC50 [27]: > 2.56 µM | IC50 [28]: > 2.56 µM | IC50 [52]: > 2.56 µM | IC50 [53]: > 2.56 µM | IC50 [29]: > 2.56 µM | IC50 [54]: > 2.56 µM | IC50 [31]: > 2.56 µM | IC50 [55]: > 2.56 µM | IC50 [32]: > 2.56 µM | IC50 [33]: > 2.56 µM | IC50 [34]: > 2.56 µM | IC50 [35]: > 2.56 µM | IC50 [36]: > 2.56 µM | IC50 [37]: > 2.56 µM | IC50 [38]: > 2.56 µM | IC50 [39]: > 2.56 µM | IC50 [40]: > 2.56 µM | IC50 [41]: > 2.56 µM
